Source: patent US12007393B2, “Methods based on the detection of RAD51 foci in tumor cells” (Fundació Privada Institut D'Investigació Oncològica De Vall …, priority 2017, dated 2024)
Entries after “also recorded” stand apart in the source; their conditions may differ.

What was measured:
[1] = tested on: patient-derived tumor xenografts (PDXs) of breast, ovarian and pancreatic cancer; test: In vivo PDX sensitivity to PARPi (antitumor activity by RECIST on % tumor volume change); design: species or system mice
Experimental: Fresh tumor samples from patients with breast or high-grade serous ovarian cancer were prospectively collected for implantation into nude mice under protocols approved by Vall Hebron's institutional review board (IRB), Institut Curie or Institut Paoli-Calmettes. Experiments were conducted following the European Union's animal care directive (2010/63/EU) and were approved by the Ethical Committee of Animal Experimentation of the Vall d'Hebron Research Institute (Barcelona, Spain) or by the Ethical Committee of Animal Experimentation CEEA-51 (Evry, France). Fresh primary or metastatic human tumors were obtained from patients at time of surgery or biopsy and immediately implanted into the mammary fat pad (surgery samples) or the lower flank (metastatic samples) of 6-week-old female athymic HsdCpb:NMRI-Foxnlnu mice (Harlan Laboratories). Animals were continuously supplemented with 1 μM 17b-estradiol (Sigma-Aldrich) in their drinking water. Upon growth of the engrafted tumors, the model was perpetuated by serial transplantation onto the lower flank. In each passage, flash-frozen and formalin-fixed paraffin embedded (FFPE) samples were taken for genotyping and histological studies.
To evaluate the sensitivity to PARP inhibition, tumor-bearing mice were equally distributed into treatment groups of 5 to 10 mice with tumors ranging 70 to 300 mm3. Olaparib 50 mg/kg or 100 mg/kg, Niraparib 75 mg/kg or 50 mg/kg, or Veliparib 100 mg/kg were administered per gavage (p.o.) daily (in 10% v/v DMSO/10% w/v Kleptose [HP-β-CD]). Tumor growth was measured with caliper bi-weekly from first day of treatment to day 21 and every 7-10 days in the acquired resistance setting. To generate PDX models with acquired resistance to PARPi, olaparib treatment was maintained for up to 150 days in olaparib-sensitive tumors until individual tumors regrew. In all experiments, mouse weight was recorded twice weekly. The tumor volume was calculated as V=4π/3/Lx12, “L” being the largest diameter and “1” the smallest. Mice were euthanized when tumors reached 1500 mm3 or in case of severe weight loss, in accordance with institutional guidelines. The antitumor activity was determined by comparing tumor volume at 21 days to its baseline: % tumor volume change=(V21 days−Vinitial)/Vinitial×100. For olaparib-sensitive PDX, the best response was defined as the minimum value of % tumor volume change sustained for at least 10 days. To classify the antitumor response, the Response Evaluation Criteria In Solid Tumors (RECIST) criteria on the % tumor volume change was followed: CR (complete response), best response<−95%; PR (partial response), −95<best response<−30%; SD (stable disease), −30%<best response<+20%, PD (progressive disease), best response>+20%.

[2] = tested on: γH2AX foci; test: γH2AX nuclear foci by immunofluorescence in FFPE PDX tumors; assay type: in vivo, mice
Experimental: (§1) The following primary antibodies were used for immunofluorescence: rabbit anti-RAD51 (Santa Cruz Biotechnology H-92, dilution 1:250), rabbit anti-RAD51 Ab from Cell Signalling Technologies (CST #8875, dilution 1:25 from a 83 μg/ml stock), rabbit anti-RAD51 Ab from Abcam (ab-133534, dilution 1:1000), mouse anti-Geminin (NovoCastra NCL-L, 1:100 in PDX samples, 1:60 in patient samples), rabbit anti-Geminin (ProteinTech 10802-1-AP, 1:400), mouse anti-BRCA1 (Santa Cruz Biotechnology D-9, 1:50 for C-term; or Abcam MS110, 1:200 for N-term), and mouse anti-γH2AX (Millipore JBW301, 1:200). The secondary antibodies used were: goat anti-rabbit Alexa fluor 568 (Invitrogen; 1:500), goat anti-mouse Alexa fluor 488 (Invitrogen; 1:500), goat anti-mouse Alexa fluor 568 (Invitrogen; 1:500) and goat anti-rabbit Alexa fluor 488 (Invitrogen; 1:500).
(§2) Thin tissue sections were deparaffinized with xylene and hydrated with decreasing concentrations of ethanol. […]
(§3) RAD51 was quantified by scoring: a) the percentage of tumor cells with RAD51 nuclear foci, b) the percentage of γH2AX foci positive cells with RAD51 foci, or c) the percentage of geminin positive cells with RAD51 foci, as indicated in the Figures. […] Optimally, one-hundred geminin or γH2AX foci-positive cells from at least 3 different and representative areas of each sample were analyzed. […]

[3] = tested on: RAD51 foci; test: RAD51 nuclear foci by immunofluorescence in FFPE PDX tumors; assay type: in vivo, mice
Experimental: as §1, §2, §3

## O=C(c1cc(Cc2n[nH]c(=O)c3ccccc23)ccc1F)N1CCN(C(=O)C2CC2)CC1 [olaparib]
[1]; of 44 PDX models (39 BrC, 3 HGSOC/OvC, 2 PaC), p.o. daily, CR/PR/SD
  number of PDX models in which treatment exhibited antitumor activity as assessed by RECIST: ten
[1]; of 44 PDX models, CR: best response <-95% tumor volume change
  number of PDX models with complete response (CR): 6
[1]; of 44 PDX models, PD: best response >+20%
  number of PDX models with progressive disease (PD), olaparib-resistant: 34
[1]; of 44 PDX models, PR: -95<best response<-30%
  number of PDX models with partial response (PR): 2
[2]; treated vs vehicle PDX tumors, sensitive and resistant groups (FIG. 2A)
  γH2AX foci formation, percentage of tumor cells with γH2AX nuclear foci: increased; also recorded: induces
[2]; treated vs vehicle, both sensitive and resistant tumors (FIG. 2B)
  γH2AX foci formation in geminin-positive cells: increased; also recorded: significantly increases
[3]; olaparib-treated samples from resistant PDX models (FIG. 2C)
  percentage of RAD51 foci/geminin-positive cells (RAD51 score): significantly increased
[3]; treated vs vehicle, olaparib-resistant PDX models (FIG. 2A)
  RAD51 foci formation, percentage of tumor cells with RAD51 nuclear foci: increased; also recorded: only significantly induced in the olaparib resistant PDX models
